Measurements: US20260125379A1, “PRODRUG OF JAK KINASE INHIBITOR” (E-nitiate Biopharmaceuticals (Hangzhou) Co., Ltd, priority 2022, published 2026)
Read-outs that look alike come from different tables or passages of the source.

Assays:
[1] = target: JAK2 (Homo sapiens, UniProt O60674); assay: JAK2 kinase inhibition assay (ULight-JAK-1 substrate, Eu-labeled anti-phosphotyrosine antibody); assay type: biochemical; settings: JAK2 0.125 nM, substrate 50 nM, ATP 10 μM, 1 hour at room temperature
Experimental: (§1) Example A: Activity Detection of JAK Kinase Small Molecule Inhibitors
(§2) Kinase reaction buffer was prepared with the following components: 50 mM HEPES, pH 7.5, 1 mM EGTA, 10 mM MgCl2, 2 mM DTT, 0.01% Tween20.
(§3) Detection buffer was prepared by diluting 10× detection buffer to IX with deionized water in a ratio of 9:1.
(§4) JAK kinase was diluted with kinase reaction buffer to 4× final concentration (JAK1: 40 nM, JAK2: 0.5 nM).
(§5) ULight™-JAK-1 (Tyr1023) substrate was diluted with kinase reaction buffer to 200 nM (final concentration: 50 nM).
(§6) ATP was diluted with kinase reaction buffer to 4× final concentration (JAK1: 160 μM, JAK2: 40 μM).
(§7) Compound to be tested was dissolved with DMSO to obtain a 10 mM storage solution, which was diluted to desired concentrations by a 3-fold gradient; for each compound 10 concentration points were set, and the final concentration of the compound to be tested ranges from 10 μM to 0.5 nM.
(§8) EDTA was dissolved with 1× detection buffer to 40 mM (EDTA final concentration: 10 mM).
(§9) Eu-labeled detection antibody (anti-phosphotyrosine (PT66)) was diluted with 1× detection buffer to 8 nM (final antibody concentration: 2 nM).
(§10) (1) To a 384-well plate, 2.5 μL 4× kinase solution and 2.5 μL 4× test compound solution with different concentrations that have been diluted were added successively, each concentration was set in duplicate, and an enzyme solution blank control and a negative control (DMSO group) were also set.
(§11) (2) The 384-well plate was shaken to mix enzyme and compound well, and then centrifuged at 1000 rpm for 1 minute, and incubated at room temperature for 60 minutes.
(§12) (3) 2.5 μL 4× substrate solution was added to the 384-well plate and centrifuged at 1000 rpm for 1 minute.
(§13) (4) 2.5 μL 4× ATP solution was added to the 384-well plate and centrifuged at 1000 rpm for 1 minute, and then enzyme reaction was initiated.
(§14) (5) For JAK1 the reaction was carried out at room temperature for 2 hours, and for JAK2 the reaction was carried out at room temperature for 1 hour.
For the JAK2 reaction, the final concentrations of component are as follows: JAK2: 0.125 nM, substrate: 50 nM, ATP: 10 μM; and the final concentration of the tested compound ranges from 10 μM to 0.5 nM.
(§15) (7) After the enzyme reaction was completed, 5 μL 4× enzyme reaction termination solution was added to each well of the 384-well plate, and then centrifuged at 1000 rpm for 1 minute and incubated at room temperature for 5 minutes.
(§16) (8) 5 μL 4× detection antibody solution (the final concentration of detection antibody is 2 nM) was added to each well of the 384-well plate, and then centrifuged at 1000 rpm for 1 minute and incubated at room temperature for 1 hour.
(§17) (9) At the antibody incubation was completed, signal value of each well was measured on a Envision plate reader.
(§18) (1) The percentage inhibition rate corresponding to each concentration of the tested compound was calculated on the basis that the blank control of enzyme solution corresponds to 100% and the negative control (DMSO group) corresponds to 0%.
(§19) (2) A nonlinear regression analysis of the logarithm of the concentration of the detected compound and the corresponding percentage inhibition rate was performed in GraphPad Prism software to obtain the half-inhibiting concentration (IC50) of the tested compound.

[2] = Plasma pharmacokinetics in rats after single gavage; assay type: in vivo; settings: SD rats; for presence of the prodrug in plasma (in words): after gavage of the prodrug itself; for Cmax / Tmax / AUC0-t / Cmax (ng · mL^−1): plasma
Experimental: (§20) Compounds A1, A2, A3, B3, B6 and B3 were administered once to SD rats by gavage. The concentrations of medicaments and metabolites thereof in plasma were collected and measured at different time points, and the pharmacokinetic parameters of each compound were calculated to study the pharmacokinetic characteristics of the compounds in plasma of SD rats. Fecal samples at 8 and 24 hours were collected simultaneously, and the concentrations of prodrugs and degraded products were detected to investigate the excretion recovery rate.
(§21) Rats were grouped in groups of 3, and all SD rats were fasted overnight (12 hours or more) the day before the experiment. On the day of the experiment, after weighing the body weight, the rats were administrated once with compound A1, A2, A3, B3, B6, and B3 by gavage respectively. SD rats were able to resume eating 4 hours after administration and were able to drink freely during the experiment. 0.20 mL of blood was collected from the jugular vein before administration and at 0.5, 1, 2, 4, 8, 12, and 24 hours after administration, respectively, and was placed in EDTA-K2 anticoagulation tube. All whole blood samples were centrifuged at 1500 g to 1600 g for 10 minutes within half an hour after collection to separate plasma, which was stored in a refrigerator at a temperature of between −90° C. and −60° C. for sample analysis. All the feces from the metabolic cage chassis were collected at 24 h after administration and weighed accurately. The required volume of homogenate liquid (aqueous solution containing 20% methanol) was added at a weight/volume ratio of 1:10, and the resultant was homogenized and analyzed.

[3] = Fecal excretion (cumulative recovery) in rats after single gavage; assay type: in vivo; settings: feces, SD rats
Experimental: as §20, §21

[4] = target: JAK1 (Homo sapiens, UniProt P23458); assay: JAK1 kinase inhibition assay (ULight-JAK-1 substrate, Eu-labeled anti-phosphotyrosine antibody); assay type: biochemical; settings: JAK1 10 nM, substrate 50 nM, ATP 40 μM, 2 hours at room temperature
Experimental: as §1, §2, §3, §4, §5, §6, §7, §8, §9, §10, §11, §12, §13, §14
(6) For the JAK1 reaction, the final concentrations of components are as follows: JAK1: 10 nM, substrate: 50 nM, ATP: 40 μM; and the final concentration of the tested compounds ranges from 10μ M to 0.5 nM.
as §15, §16, §17, §18, §19

[5] = Pharmacokinetics in rats in vivo: A13 in plasma and colon tissue after equimolar A3 or A13; settings: SD rats, A3 30 mg/kg vs A13 15 mg/kg (equal molar) by gavage, FIG. 1
Experimental: Compounds A3 and A13 were administered once to SD rats by gavage in an equal molar amount relative to the body weight of rats. The concentration of the medicaments and metabolites thereof in plasma and colon tissues were collected and measured at different time points, and the pharmacokinetic parameters of the compounds were calculated to compare the pharmacokinetic characteristics of the prodrug and the active metabolite in SD rats in vivo.
Rats were grouped in groups of 27, and all SD rats were fasted overnight (12 hours or more) the day before the experiment. On the day of the experiment, after weighing the body weight, the compounds A3 (30 mg/kg) and A13 (15 mg/kg) were administered once by gavage respectively. SD rats were able to resume eating after 4 hours of administration and were able to drink freely during the experiment. Plasma and colonic tissue were collected at 0.5, 1, 2, 4, 6, 8, 12, 24 and 48 hours after the administration to detect the concentration of A13 in the plasma and colon tissue homogenate liquid.

[6] = rat, po, administration group Compound B6 50 mg/kg by gavage, read-out: Cmax
[7] = rat, po, administration group Compound B6 50 mg/kg by gavage, read-out: Tmax
[8] = administration group Compound B6 50 mg/kg by gavage
[9] = administration group Compound A3 40 mg/kg by gavage
[10] = administration group Compound A1 50 mg/kg by gavage
[11] = administration group Compound A2 50 mg/kg by gavage
[12] = administration group Compound B3 33 mg/kg (equimolar with B6) by gavage

Sequence of JAK1 (P23458 whole entry, species assumed): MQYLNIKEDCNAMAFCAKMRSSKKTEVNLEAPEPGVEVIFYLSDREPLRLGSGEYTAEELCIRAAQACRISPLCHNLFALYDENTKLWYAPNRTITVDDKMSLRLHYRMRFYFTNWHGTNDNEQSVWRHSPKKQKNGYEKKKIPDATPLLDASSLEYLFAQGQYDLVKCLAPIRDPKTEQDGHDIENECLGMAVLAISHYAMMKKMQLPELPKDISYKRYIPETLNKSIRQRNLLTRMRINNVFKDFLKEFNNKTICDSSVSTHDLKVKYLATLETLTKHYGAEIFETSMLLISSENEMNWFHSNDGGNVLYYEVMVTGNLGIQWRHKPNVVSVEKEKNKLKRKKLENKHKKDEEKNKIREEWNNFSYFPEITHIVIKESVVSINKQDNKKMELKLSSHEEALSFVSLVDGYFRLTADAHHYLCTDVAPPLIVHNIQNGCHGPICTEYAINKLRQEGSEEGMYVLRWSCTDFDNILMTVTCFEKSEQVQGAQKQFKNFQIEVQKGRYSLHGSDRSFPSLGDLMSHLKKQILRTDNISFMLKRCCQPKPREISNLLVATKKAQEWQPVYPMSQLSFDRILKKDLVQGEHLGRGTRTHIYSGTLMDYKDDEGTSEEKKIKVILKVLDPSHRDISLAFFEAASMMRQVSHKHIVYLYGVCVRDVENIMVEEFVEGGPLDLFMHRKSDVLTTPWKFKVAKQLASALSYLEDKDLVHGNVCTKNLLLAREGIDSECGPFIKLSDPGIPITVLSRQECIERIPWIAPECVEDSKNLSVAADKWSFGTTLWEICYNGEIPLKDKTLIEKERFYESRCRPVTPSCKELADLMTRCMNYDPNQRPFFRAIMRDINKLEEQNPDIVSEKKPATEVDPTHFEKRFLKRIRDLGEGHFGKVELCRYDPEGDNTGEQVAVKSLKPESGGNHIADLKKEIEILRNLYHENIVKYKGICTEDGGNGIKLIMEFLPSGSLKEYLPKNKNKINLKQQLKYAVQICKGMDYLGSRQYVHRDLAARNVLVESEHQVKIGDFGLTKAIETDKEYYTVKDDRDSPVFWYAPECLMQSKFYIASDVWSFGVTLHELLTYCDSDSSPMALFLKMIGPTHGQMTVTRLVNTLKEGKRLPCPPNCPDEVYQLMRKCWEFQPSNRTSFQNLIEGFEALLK
Sequence of JAK2 (O60674 whole entry, species assumed): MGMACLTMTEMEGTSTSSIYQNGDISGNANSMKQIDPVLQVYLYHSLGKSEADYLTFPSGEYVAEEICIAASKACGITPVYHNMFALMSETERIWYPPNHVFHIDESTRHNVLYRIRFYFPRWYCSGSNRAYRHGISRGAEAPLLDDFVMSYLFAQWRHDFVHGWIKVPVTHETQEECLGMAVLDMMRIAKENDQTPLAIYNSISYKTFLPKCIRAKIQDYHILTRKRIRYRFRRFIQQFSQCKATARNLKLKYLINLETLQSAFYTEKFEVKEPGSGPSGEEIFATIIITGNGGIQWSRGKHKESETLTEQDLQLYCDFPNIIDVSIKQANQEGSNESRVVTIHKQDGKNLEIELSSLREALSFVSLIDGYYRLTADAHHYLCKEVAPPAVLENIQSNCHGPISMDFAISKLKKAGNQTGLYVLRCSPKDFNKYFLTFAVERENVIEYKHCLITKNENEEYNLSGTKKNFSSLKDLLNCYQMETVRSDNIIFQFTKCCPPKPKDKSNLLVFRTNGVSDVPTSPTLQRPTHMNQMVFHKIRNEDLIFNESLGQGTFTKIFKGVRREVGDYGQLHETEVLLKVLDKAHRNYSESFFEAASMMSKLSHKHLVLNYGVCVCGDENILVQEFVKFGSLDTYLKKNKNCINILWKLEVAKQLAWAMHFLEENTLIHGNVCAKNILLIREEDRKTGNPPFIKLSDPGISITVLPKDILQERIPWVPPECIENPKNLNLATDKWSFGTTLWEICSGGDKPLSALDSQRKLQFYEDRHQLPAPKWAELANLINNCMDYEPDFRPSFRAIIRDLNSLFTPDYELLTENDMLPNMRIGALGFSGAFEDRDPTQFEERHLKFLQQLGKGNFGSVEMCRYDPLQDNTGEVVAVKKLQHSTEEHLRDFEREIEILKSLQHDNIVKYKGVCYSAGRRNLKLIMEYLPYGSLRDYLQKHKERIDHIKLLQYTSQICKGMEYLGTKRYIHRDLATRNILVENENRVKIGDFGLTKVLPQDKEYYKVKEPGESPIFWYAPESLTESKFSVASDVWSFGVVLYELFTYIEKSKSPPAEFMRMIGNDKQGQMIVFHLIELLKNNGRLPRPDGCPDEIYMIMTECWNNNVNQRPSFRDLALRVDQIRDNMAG

SMILES | IC50 [1] | presence of the prodrug in plasma (in words) [2] | Cmax [2, 6] | Tmax [2, 7] | Cumulative recovery rate at 24 h (%) [3, 8] | IC50 [4] | AUC0-t [2, 9] | Cumulative recovery rate at 24 h (%) [3, 9] | Cumulative recovery rate at 24 h (%) [3, 10] | Cumulative recovery rate at 24 h (%) [3, 11] | other results
C[C@@H](OC(=O)C(C)(C)Oc1ccccc1/N=N/c1ccc(O)c(C(=O)O)c1)c1nc2cnc3[nH]ccc3c2n1N1CCC(CC#N)CC1 [Compound A3, (R,E)-5-((2-((1-(1-(1-(4-cyanomethylpiperidin-1-yl)-1,6-dihydroimidazo[4,5-d]pyrrolo[2,3-b]pyridin-2-yl)ethoxy)-2-methyl-1-oxopropan-2-yl)oxy)phenyl)diazenyl)-2-hydroxybenzoic acid] | 102 nM | absent or rarely present in plasma | – | – | – | 7.04 nM | 8.92 ng·h/g | 0.78% | – | – | Cmax ([2]; rat, po, administration group Compound A3 40 mg/kg by gavage, read-out: Cmax): 2.08 ng/mL; Tmax ([2]; rat, po, administration group Compound A3 40 mg/kg by gavage, read-out: Tmax): 4 h; amount (AUC) of active metabolite A13 in the colonic tissue after prodrug A3 compared with compound A13 ([5]; colon tissue 0.5-48 hours): more in the colonic tissue; amount (AUC) of active metabolite A13 in the blood after prodrug A3 compared with compound A13 ([5]; plasma 0.5-48 hours): less in the blood
C[C@@H](OC(=O)CCc1ccccc1/N=N/c1ccc(O)c(C(=O)O)c1)c1nc2cnc3[nH]ccc3c2n1N1CCC(CC#N)CC1 [Compound A1, (R,E)-5-((2-(3-(1-(1-(4-(cyanomethyl)piperidin-1-yl)-1,6-dihydroimidazo[4,5-d]pyrrolo[2,3-b]pyridin-2-yl)ethoxy)-3-oxopropyl)phenyl)diazenyl)-2-hydroxybenzoic acid] | 536 nM | absent or rarely present in plasma | – | – | – | 133 nM | – | – | 83% | – | Cmax (ng · mL^−1) [2, 10]: BLOQ
C[C@@H](OC(=O)OCc1ccc(/N=N/c2ccc(O)c(C(=O)O)c2)cc1)c1nc2cnc3[nH]ccc3c2n1N1CCC(CC#N)CC1 [Compound A2, (R,E)-5-((4-((((1-(1-(4-cyanomethylpiperidin-1-yl)-1,6-dihydroimidazo[4,5-d]pyrrolo[2,3-b]pyridin-2-yl)ethoxy)carbonyl)oxy)methyl)phenyl)diazenyl)-2-hydroxybenzoic acid] | 27 nM | absent or rarely present in plasma | – | – | – | 5.94 nM | – | – | – | 7.2% | Cmax (ng · mL^−1) [2, 11]: BLOQ
C[C@@H](O)c1nc2cnc3[nH]ccc3c2n1N1CCC(CC#N)CC1 [Compound A13, (R)-2-(1-(2-(1-(hydroxyethyl))imidazo[4,5-d]pyrrolo[2,3-b]pyridin-1(6H)-yl)piperidin-4-yl)acetonitrile] | – | – | – | – | – | – | 836 ng·h/g | 34.3% | 11.6% | 24.8% | Cmax [2, 10]: 9.1 ng/mL; Tmax [2, 10]: 12 h; AUC0-t [2, 11]: 972 ng·h/g; Cmax [2, 11]: 80.6 ng/mL; Tmax [2, 11]: 4 h; Cmax [2, 9]: 69.9 ng/mL; Tmax [2, 9]: 12 h

Second part, led by results:

IC50 [1] | presence of the prodrug in plasma (in words) [2] | Cmax [2, 6] | Tmax [2, 7] | Cumulative recovery rate at 24 h (%) [3, 8] | IC50 [4] | AUC0-t [2, 9] | Cumulative recovery rate at 24 h (%) [3, 9] | Cumulative recovery rate at 24 h (%) [3, 10] | Cumulative recovery rate at 24 h (%) [3, 11] | SMILES | other results
0.81 nM | absent or rarely present in plasma | 0.7 ng/mL | 4 h | 5.1% | 0.45 nM | – | – | – | – | N#CC[C@H]1CC[C@H](n2c(/N=N/c3ccc(O)c(C(=O)O)c3)nc3cnc4[nH]ccc4c32)CC1 [Compound B6, 5-((E)-(1-((1R,4R)-4-(cyanomethyl)cyclohexyl)-1,6-dihydroimidazo[4,5-d]pyrrolo[2,3-b]pyridin-2-yl)diazenyl)-2-hydroxybenzoic acid] | blood system absorption (AUC0-t) of the active metabolite B3 after prodrug B6 compared with direct oral equimolar B3 ([2]; B6 50 mg/kg vs B3 33 mg/kg by gavage): significant reduction
0.37 nM | – | 4.8 ng/mL | 12 h | 82.1% | 0.04 nM | – | – | – | – | N#CC[C@H]1CC[C@H](n2c(N)nc3cnc4[nH]ccc4c32)CC1 [Compound B3, 2-((1R,4R)-4-(2-aminoimidazo[4,5-d]pyrrolo[2,3-b]pyridin-1(6H)-ethyl)cyclohexyl)acetonitrile] | AUC0-t [2, 12]: 324 ng·h/g; AUC0-t [2, 8]: 69.1 ng·h/g; Cmax ([2]; rat, po, administration group Compound B3 33 mg/kg (equimolar with B6) by gavage, read-out: Cmax): 126 ng/mL; Tmax ([2]; rat, po, administration group Compound B3 33 mg/kg (equimolar with B6) by gavage, read-out: Tmax): 1.2 h; Cumulative recovery rate at 24 h (%) [3, 12]: 71.2%
